# What was measured:
# Type in all cases: in vivo, Male Wistar rats
# p-Akt = assay: Western blotting of p-Akt in brain tissue; details: TBI group vs control and TBI+JM-20 groups, p<0.05, FIG. 8
# Description: (§1) Male Wistar rats (200-250 g), with an average age of 60 days were used, conditioned in boxes with food and water at will. Procedures were performed pursuant to the rules of the Animal Ethics and Welfare Committee UFSM (9426190418).
# (§2) TBI was induced through the weight-drop model (MANNIX, R. et al. Chronic Gliosis and Behavioral Deficits in Mice Following Repetitive Mild Traumatic Brain Injury. Journal of Neurosurgery. 2014) A 54 g weight was used released from a 100 cm height freely falling on the animals head. […]
# (§3) The Western blot test was performed according to Gerbatin et al (2017) with some adjustments (GERBATIN, R. D. R. et al. Guanosine Protects Against Traumatic Brain Injury-Induced Functional Impairments and Neuronal Loss by Modulating Excitotoxicity, Mitochondrial Dysfunction, and Inflammation. Molecular Neurobiology. 54(10):7585-7596. 2017.). […] The protein concentration of each sample was determined by the bicinchonininc acid protein assay (Thermo Fisher Scientific). […]
# (§4) The mouse anti-β-actin antibody (1: 10,000, Santa Cruz Biotechnology, Santa Cruz, Calif., EE. UU.) was dyed as an additional control to the protein load. […] Then the bands were quantified using the Image Lab software (Bio-Rad).
# iba-1 = assay: Western blotting of iba-1 in brain tissue; details: TBI group vs control, JM-20 and TBI+JM-20, p<0.01, FIG. 9
# Description: as §1, §2, §3, §4
# TBI-induced rats [1] = assay: Cerebral edema (brain water content, wet-dry method); details: 24 h after TBI; TBI group vs control and TBI+JM-20 groups, p<0.05; FIG. 6
# Description: as §1
# as §2, with “head. Animals were suspended on aluminum foil, with small cuts to ensure it would break with the impact of the weight allowing for the sudden acceleration of the movement, thus tearing the aluminum foil and falling over a sponge. TBI-induced animals were previously anesthetized with 2% isoflurane.” for “head.”
# The cerebral edema was determined measuring the water content of the brain using the wet-dry method described by Chen et al (2014) (CHEN, W. et al. Neuroprotective effect of allicin against traumatic brain injury via Akt/endothelial nitric oxide synthase pathway-mediated anti-inflammatory and anti-oxidative activities. Neurochemistry International. 68:28-37. 2014) Twenty-four hours after the TBI, the animals were sacrificed and their brains were rapidly removed and weighed to determine their wet weight. […] The water content of the brain was calculated using the following formula: […]
# TBI-induced rats [2] = assay: Beam-walking test after weight-drop TBI; details: TBI group vs control and JM-20 (alone) groups, p<0.05; FIG. 5
# Description: as §1
# as §2, with “head. Animals were suspended on aluminum foil, with small cuts to ensure it would break with the impact of the weight allowing for the sudden acceleration of the movement, thus tearing the aluminum foil and falling over a sponge. TBI-induced animals were previously anesthetized with 2% isoflurane.” for “head.”
# The beam-walking test (HAUSSER, N. et al. Detecting Behavioral Deficits in Rats After Traumatic Brain Injury. J. Vis. Exp. (131), e56044, doi:10.3791/56044. 2018.) consists in animals walking on a hanging wooden beam (2.5 cm wide and 100 cm long) to reach a black wooden box placed at the end of the apparatus. […] Three attempts were analyzed. […] The day of the test, the times of each attempt were recorded and their values were averaged.
# GFAP = assay: Western blotting of GFAP in brain tissue; details: cortex and hippocampus; all groups; FIGS. 11 and 12
# Description: as §1, §2, §3, §4
# TBI = assay: Overall assessment in animal models after a TBI; details: motor performance; cerebral edema; astrocyte reactivity; microglial activation; pro-survival pathway activation
# Description: as §1
# (§5) TBI was induced through the weight-drop model (MANNIX, R. et al. Chronic Gliosis and Behavioral Deficits in Mice Following Repetitive Mild Traumatic Brain Injury. Journal of Neurosurgery. 2014) A 54 g weight was used released from a 100 cm height freely falling on the animals head. Animals were suspended on aluminum foil, with small cuts to ensure it would break with the impact of the weight allowing for the sudden acceleration of the movement, thus tearing the aluminum foil and falling over a sponge. TBI-induced animals were previously anesthetized with 2% isoflurane. In addition, topical lidocaine was applied to the animals' head to minimize posttraumatic pain (MYCHASIUK, R. et al. A Novel Model of Mild Traumatic Brain Injury for Juvenile Rats. Journal of Visualized Experiments. 2014)
# TBI-induced rats [3] = assay: Rotarod test after weight-drop TBI; details: TBI group vs control, JM-20 and TBI+JM-20 groups, p<0.05; FIG. 1
# Description: as §1, §5
# Animals were trained for 5 minutes before the TBI so they could adapt to the apparatus. The testing session comprised 5 trials and concluded when animals fell off the rotor (3.7 cm diameter, velocity 25-30 rpm) or after the cutoff time, i.e. 300 s. (Whishaw et al., 2003). The first fall latency was analyzed.
# TBI-induced rats [4] = assay: Open field test after weight-drop TBI; details: TBI group vs control and TBI+JM-20 group, p<0.05; FIG. 3
# Description: as §1, §5
# Animals were placed in the central area of an open field (56 cm diameter) that had its surface divided into equal parts. The duration of the test was 300 seconds. The number of times animals walked around the quadrants, the number of their exploratory responses (rearings) and their immobility time were analyzed.
smiles,measurement,setting,value
"CCOC(=O)C1=C(C)NC2=C(C=Nc3ccccc3N2)C1c1ccccc1[N+](=O)[O-] (centres unmarked) [JM-20, 3-ethoxycarbonyl-2-methyl-4-(2-nitrophenyl)-4,11-dihydro-1H-pyridol[2,3-b][1,5]benzodiazepine]",p-Akt expression in hippocampus,p-Akt,decreased in TBI groups
same,iba-1 expression in cerebral cortex,iba-1,"increased in TBI groups, both in the cerebral cortex in comparison with all the groups"
same,brain water content,TBI-induced rats [1],increased in the TBI group in contrast with the control and TBI +JM-20 groups
same,time to complete the beam-walk test,TBI-induced rats [2],rats in the TBI group took longer to complete the course than the control and JM-20 groups
same,GFAP expression,GFAP,showed no changes in any of the groups
same,"effect on TBI adverse effects (behavioral, morphological and biochemical changes)",TBI,"effective in reducing and, in some cases, reversing TBI adverse effects"
same,first fall latency time on the rotarod test,TBI-induced rats [3],animals who suffered a TBI showed a reduction of the first fall latency time on the rotarod test in contrast with the other groups
same,number of rearings during the open field test,TBI-induced rats [4],a higher number of rearings was observed in comparison with the control and the TBI+JM-20 group

# — US20220370473A1, “USE OF A BENZODIAZEPINE DERIVATIVE AND METHOD OF TREATMENT OF TRAUMATIC BRAIN INJURY” (CENTRO DE INVESTIGACION Y […] MEDICAMENTOS (CIDEM), priority 2019, published 2022)
